Values of other authors, collected in patent publication US9056184B2, “Methods for renal denervation” (priority 2010, dated 2015).

Columns and labels:
[1] = in vivo
CYP3A4 = conditions: in vivo
[2] = after initiation of therapy
[3] = target: tetrodotoxin-sensitive voltage-gated sodium channel (TTX-s Na+ channel); conditions: read-out: binding affinity
[4] = target: tetrodotoxin-resistant voltage-gated sodium channel (TTX-r Na+ channel)

[Li] [lithium]
toxic amounts [1]: > 1.5 mmol/L

NC(=O)N1c2ccccc2C=Cc2ccccc21 [carbamazepine, Carbamazepine]
time for auto-induction to reach a plateau (CYP3A4): 5 to 7 days
time to stable carbamazepine concentrations [2]: 2-3 weeks

NC1=N[C@H](O)[C@H]2[C@H]3O[C@]4(O)O[C@@H]([C@@H](O)[C@@]2(N1)[C@@H]4O)[C@]3(O)CO [Tetrodotoxin]
Kd [3]: 0.005 to 0.015 µM
binding affinity [4]: low micromolar
